Measurements published in ChEMBL document CHEMBL1201862, “PubChem BioAssay data set” (2004).
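96-well plates; 48 h exposure; 5 concentrations. Endpoints by linear interpolation between flanking doses. Not reached: highest tested concentration assigned. GI50 = concentration required for 50% inhibition of growth.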 The source made the active and inactive calls. Cut-off read from the data, not from the text of the source: active = GI50 up to about 1.1 µM and inactive = higher.

Assays:
Experiment in all cases: growth of human tumour cells (NCI), 48 h
SNB-19 = system: SNB-19
M14 = system: M14
SNB-75 = system: SNB-75
KM12 = system: KM12
OVCAR-3 = system: OVCAR-3
786-0 = system: 786-0
U-251 = system: U-251
SF-295 = system: SF-295
Malme-3M = system: Malme-3M
HL-60 = system: HL-60
NCI/ADR-RES = system: NCI/ADR-RES
LOX IMVI = system: LOX IMVI
UO-31 = system: UO-31
HOP-92 = system: HOP-92
OVCAR-4 = system: OVCAR-4
NCI-H522 = system: NCI-H522
A549 = system: A549
SF-539 = system: SF-539
RXF 393 = system: RXF 393

Measured: GI50

C1=C(c2ccccc2)NC2=N[C@H]3CCCC[C@@H]3N2C1c1ccccc1 (some centres not stated)
inactive: SNB-19 14.6 µM | M14 12.9 µM | SNB-75 11.3 µM | KM12 10.1 µM | OVCAR-3 13.1 µM | 786-0 16.9 µM | U-251 13.4 µM | SF-295 13 µM | Malme-3M 12.8 µM | HL-60 10.3 µM | NCI/ADR-RES 12 µM | LOX IMVI 15.3 µM | UO-31 12.2 µM | HOP-92 12.7 µM | OVCAR-4 10.1 µM

CCCC(=O)Nc1cc([N+](=O)[O-])c([N+](=O)[O-])cc1OC
inactive: SNB-19 17 µM | M14 12.8 µM | NCI-H522 12.9 µM | A549 13.7 µM | SNB-75 16.7 µM | KM12 12.4 µM | OVCAR-3 14.6 µM | 786-0 26.3 µM | U-251 16.3 µM | SF-295 10.1 µM | HL-60 13.1 µM | NCI/ADR-RES 39.5 µM | LOX IMVI 2.79 µM | UO-31 1.75 µM | SF-539 20 µM | OVCAR-4 15.4 µM

C=Cc1c(C)c2cc3nc(c4c5[nH]c(cc6nc(cc1[nH]2)C(C)=C6CC)c(C)c5C(=O)C4C(=O)OC)C(CCC(=O)OC)C3C (configuration not stated)
inactive: SNB-19 > 100 µM | M14 > 100 µM | NCI-H522 > 100 µM | A549 > 100 µM | SNB-75 > 100 µM | KM12 > 100 µM | OVCAR-3 > 100 µM | 786-0 > 100 µM | U-251 > 100 µM | SF-295 > 100 µM | Malme-3M > 100 µM | HL-60 > 100 µM | LOX IMVI > 100 µM | UO-31 > 100 µM | HOP-92 > 100 µM | SF-539 > 100 µM | RXF 393 > 100 µM | OVCAR-4 > 100 µM

CCCCCCNc1n[nH]c(=O)c2c1nnn2Cc1ccccc1
inactive: SNB-19 > 100 µM | M14 > 100 µM | A549 > 100 µM | KM12 > 100 µM | OVCAR-3 > 100 µM | 786-0 > 100 µM | U-251 > 100 µM | SF-295 > 100 µM | Malme-3M > 100 µM | HL-60 > 100 µM | NCI/ADR-RES > 100 µM | LOX IMVI > 100 µM | UO-31 > 100 µM | HOP-92 86.9 µM | OVCAR-4 > 100 µM

CC(C)=CCN1CC(C)C(=O)Nc2cc(Cl)ccc21 (configuration not stated)
inactive: SNB-19 28.5 µM | M14 23.2 µM | NCI-H522 17.3 µM | A549 30.2 µM | KM12 25.2 µM | OVCAR-3 15.1 µM | 786-0 19.2 µM | U-251 27.4 µM | SF-295 27.1 µM | Malme-3M 25.1 µM | HL-60 47.8 µM | LOX IMVI 16.2 µM | UO-31 28.6 µM | HOP-92 10.8 µM | SF-539 23.5 µM | RXF 393 28.4 µM | OVCAR-4 25.6 µM

O=c1[nH]c(=O)n(COCCO)cc1-c1ccccc1
inactive: SNB-19 > 100 µM | M14 > 100 µM | NCI-H522 > 100 µM | A549 > 100 µM | KM12 > 100 µM | OVCAR-3 > 100 µM | 786-0 > 100 µM | U-251 > 100 µM | SF-295 > 100 µM | Malme-3M > 100 µM | HL-60 > 100 µM | NCI/ADR-RES > 100 µM | LOX IMVI > 100 µM | UO-31 > 100 µM | HOP-92 > 100 µM | OVCAR-4 > 100 µM
